Paper PMC4285139, “Target discovery of acivicin in cancer cells elucidates its mechanism of growth inhibition” (Chemical Science, 2014)
One block for each compound: values may come before it.

Experiments:
[1] = target: T1, ALDH4A1 (Homo sapiens, UniProt P30038); experiment: enzyme inhibition assay with purified recombinant enzyme ([…] min pre-incubation); also ABPP labelling, lost in the Cys348Ala mutant; type: biochemical
T1 sequence (P30038 25-563): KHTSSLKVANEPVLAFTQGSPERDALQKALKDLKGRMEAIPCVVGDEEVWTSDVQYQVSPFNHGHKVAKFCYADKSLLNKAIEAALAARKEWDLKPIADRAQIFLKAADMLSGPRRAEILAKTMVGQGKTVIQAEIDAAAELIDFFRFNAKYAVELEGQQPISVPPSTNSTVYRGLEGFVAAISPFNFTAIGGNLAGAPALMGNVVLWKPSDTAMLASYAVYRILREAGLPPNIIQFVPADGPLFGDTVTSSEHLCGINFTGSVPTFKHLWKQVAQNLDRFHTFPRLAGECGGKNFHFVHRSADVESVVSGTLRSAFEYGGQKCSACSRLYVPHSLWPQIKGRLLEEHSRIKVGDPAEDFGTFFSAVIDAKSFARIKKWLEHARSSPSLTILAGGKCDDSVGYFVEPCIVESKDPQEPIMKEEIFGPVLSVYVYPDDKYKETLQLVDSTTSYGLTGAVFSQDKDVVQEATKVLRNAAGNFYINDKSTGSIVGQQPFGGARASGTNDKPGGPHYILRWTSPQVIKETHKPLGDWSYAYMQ

[2] = target: T2, ALDH1A1 (Homo sapiens, UniProt P00352); experiment: enzyme inhibition assay with purified recombinant enzyme ([…] min pre-incubation); type: biochemical
T2 sequence (P00352 2-501): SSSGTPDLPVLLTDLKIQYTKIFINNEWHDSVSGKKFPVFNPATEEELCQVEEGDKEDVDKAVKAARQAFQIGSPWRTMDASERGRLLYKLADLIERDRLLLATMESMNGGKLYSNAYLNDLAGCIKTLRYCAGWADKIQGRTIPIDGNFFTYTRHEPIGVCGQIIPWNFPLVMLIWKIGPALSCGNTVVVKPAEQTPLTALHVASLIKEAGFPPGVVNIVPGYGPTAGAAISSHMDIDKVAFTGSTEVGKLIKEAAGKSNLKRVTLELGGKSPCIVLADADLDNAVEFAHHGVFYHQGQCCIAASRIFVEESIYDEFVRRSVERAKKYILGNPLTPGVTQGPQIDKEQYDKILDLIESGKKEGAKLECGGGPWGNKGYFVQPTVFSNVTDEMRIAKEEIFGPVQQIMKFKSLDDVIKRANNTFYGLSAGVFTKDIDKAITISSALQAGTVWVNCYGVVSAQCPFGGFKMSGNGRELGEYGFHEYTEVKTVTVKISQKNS

[3] = target: T1, ALDH4A1; experiment: enzyme inhibition assay with purified recombinant enzyme ([…] min pre-incubation); also competitive ABPP labelling in HepG2 lysate and cells; type: biochemical
[4] = target: T1, ALDH4A1; experiment: pre-incubation of native enzyme blocks probe labelling (competitive ABPP); type: cell-based

- IC50 [1]: 0.7 µM
Structure (SMILES): C#CCCCC(=O)N[C@H](C(=O)O)[C@@H]1CC(Cl)=NO1 [ACV1]

- IC50 [2]: 55 µM
Structure (SMILES): C#CCNC(=O)[C@@H](N)[C@@H]1CC(Cl)=NO1 [ACV2]

Structure (SMILES): N[C@H](C(=O)O)[C@@H]1CC(Cl)=NO1 [ACV, Acivicin]
- IC50 [3]: 5.4 µM

- IC50 [2]: 0.3 µM
Structure (SMILES): C#CCCCC(=O)OC[C@H]1CC(Br)=NO1 [ACVL1]

Structure (SMILES): CCN(CC)C(=S)SSC(=S)N(CC)CC [disulfiram]
- pre-incubation of native enzyme blocks probe labelling (competitive ABPP) [4]: pre-incubation of the native enzyme with the ALDH inhibitor disulfiram resulted in a lack of labeling
